Measurements as given in US20090022726A1, “METHOD OF USING IL6 ANTAGONISTS WITH PROTEASOME INHIBITORS” (priority 2005, published 2009).
Entries after “also recorded” stand apart in the source; their conditions may differ.

Legend:
[1] = tested on: refractory or relapsed myeloma; settings: refractory or relapsed disease, initial phase II clinical trial (Richardson et al. 2003); cited from earlier work
proteasome = settings: over human leukocyte elastase, cathepsin G, chymotrypsin and thrombin; cited from earlier work
[2] = tested on: IL-6 signaling, HSP-70 and MKP-1 in ANBL-6 cells; assay: Immunoblot analysis of IL-6 signaling, HSP-70 and MKP-1 with densitometry; assay type: cell-based
Protocol: ANBL-6 cells were incubated with 10 mcg/ml of CNTO 328 or the control antibody, F105, with or without increasing concentrations of bortezomib for 8 hours. Cell lysates were prepared and subjected to immunoblot analysis. Blots were stripped and probed for HSC-70 to ensure equal protein loading per lane. Densitometry was performed on HSP-70 and MKP-1 immunoblots.

KAS-6 cells [3] = assay: Apoptosis, KNK437 with bortezomib; assay type: cell-based
HSF-1 knockout MEFs = assay: Apoptosis assay, KNK437 with bortezomib; assay type: cell-based, mouse; settings: 24 hours
Protocol: (§1) ANBL-6 and KAS-6 cells were incubated with 10 mcg/ml (ANBL-6) or 1 mcg/ml (KAS-6) of CNTO 328 or the control antibody, F105, for 8 (ANBL-6) to 12 (KAS-6) hours. Apoptosis was determined using an ELISA-based assay that measures the presence of mono- and oligo-nucleosomes (Roche Applied Science, Indianapolis, Ind.) and expressed as a fold increase in apoptosis over DMSO and F105-treated controls. Cells were treated in RPMI 1640 media containing 10% FBS and 1 ng/mL of IL-6 (FIGS. 3 A and B, column height represents the mean of triplicate cultures; bars, SEM).
(§2) ANBL-6 or MEF cells (control and HSF-1−/−) were incubated with either DMSO control or increasing concentrations of bortezomib and KNK437 for 12 (ANBL-6) to 24 hours (MEFs). Apoptosis was determined as described above and expressed as a fold increase in apoptosis over DMSO-treated controls. ANBL-6 cells were treated in RPMI 1640 media containing 10% FBS and 1 ng/mL of IL-6 (FIG. 5, columns, mean of triplicate cultures; bars, SEM).

[4] = tested on: normal mouse embryo fibroblasts (MEFs); assay: Apoptosis assay, KNK437 with bortezomib; assay type: cell-based; settings: normal (HSF-1+/+) MEFs, 24 hours
Protocol: as §1, §2

ANBL-6 cells [5] = assay: Apoptosis assay, KNK437 with bortezomib; assay type: cell-based; settings: ANBL-6, KNK437 with bortezomib, 12 hours, compared with control treated cells
Protocol: as §1, §2

KAS-6 cells [6] = assay: WST-1 cell viability, antibody combined with bortezomib; assay type: cell-based; settings: KAS-6, 0.1 mcg/ml antibody pre-incubated 24 hours, then bortezomib 24 hours; relative to control antibody F105
Protocol: (§3) ANBL-6 and KAS-6 cells (Dr. Diane Jelinek, Mayo Clinic, Rochester, Minn.) were incubated with increasing concentrations of CNTO 328 or the isotype control antibody, F105, for 24 and 48 hours. For the last 4 hours, the cells were incubated in the presence of WST-1 (Roche Applied Science, Indianapolis, Ind.). Reduction of WST-1 into a water soluble formazan salt by viable cells was measured at an absorbance of 450 nm using an ELISA plate reader. Viability was measured as percent viability relative to untreated cells. All cells were treated in RPMI 1640 media containing 10% FBS and 1 ng/mL of IL-6.
(§4) The ANBL-6, KAS-6, or IL-6-independent RPMI 8226 myeloma cell lines were pre-incubated with 0.1 mcg/ml (KAS-6) or 10 mcg/ml (ANBL-6 and RPMI 8226) of the control antibody, F105, or CNTO 328 for 24 hours, followed by co-incubation with either DMSO control or increasing concentrations of bortezomib in the continued presence of F105 or CNTO 328 for another 24 hours. For sequencing experiments, ANBL-6 cells were treated with: 1) F105 or CNTO 328 for 24 hours followed by F105 or CNTO 328 and bortezomib 5 nM for another 24 hours (antibody→bortezomib); 2) F105 or CNTO 328 and bortezomib 5 nM concurrently for 24 hours (antibody+bortezomib), or bortezomib at 5 nM for 12 hours followed by F105 or CNTO 328 for 24 hours (bortezomib→antibody). Cell viability was assayed as described above and measured as percent viability relative to untreated cells. All cells were treated in RPMI 1640 media containing 10% FBS and 1 ng/mL of IL-6. Columns, mean of quintuplicate cultures; bars, SEM.

ANBL-6 cells [7] = assay: as above; assay type: cell-based
Protocol: as §3, §4

[8] = tested on: IL-6-independent RPMI 8226 myeloma cell line; assay: as above; assay type: cell-based; settings: RPMI 8226, 10 mcg/ml antibody pre-incubated 24 hours, then bortezomib 24 hours
Protocol: as §3, §4

[9] = tested on: IL-6-independent myeloma cell line RPMI 8226; assay: ELISA-based apoptosis assay, antibody and bortezomib; assay type: cell-based; settings: RPMI 8226, data not shown
KAS-6 cells [10] = assay: ELISA-based apoptosis assay (mono- and oligo-nucleosomes), antibody and bortezomib; assay type: cell-based; settings: KAS-6, 1 mcg/ml CNTO 328 with bortezomib, 12 hours
Protocol: as §1

ANBL-6 cells [11] = assay: as above; assay type: cell-based; settings: ANBL-6, 10 mcg/ml CNTO 328 with bortezomib, 8 hours
Protocol: as §1

KAS-6 cells [12] = assay: WST-1 cell viability, antibody alone; assay type: cell-based; settings: increasing concentrations, 24 and 48 hours, 1 ng/mL of IL-6
Protocol: as §3

ANBL-6 cells [13] = assay: WST-1 cell viability, antibody alone; assay type: cell-based; settings: increasing concentrations, 24 and 48 hours, 1 ng/mL of IL-6
Protocol: as §3

[14] = tested on: IL-6 signaling in KAS-6 cells; assay: Down-regulation of IL-6 signaling (phospho-protein levels); assay type: cell-based
[15] = 10 mcg/ml CNTO 328 with bortezomib, 8 hours, densitometry
[16] = CNTO 328 with bortezomib, immunoblot

In the case of `CC(C)C[C@H](NC(=O)[C@H](Cc1ccccc1)NC(=O)c1cnccn1)B(O)O` [bortezomib, reference compound], the “patients with partial responses or better” value [1] is listed as 27%, the “selectivity for the proteasome over other serine proteases” value (proteasome) is listed as > 500 fold and the “levels of phospho-STAT-3” value ([2]; 8 hours, immunoblot) is listed as “decreased levels”. The “levels of phospho-p42/44 MAPK” value ([2]; 8 hours, immunoblot) was “decreased levels”.

For `O=CN1CC/C(=C\c2ccc3c(c2)OCO3)C1=O` [KNK437], the “apoptotic activity of bortezomib” value (KAS-6 cells [3]) was “enhanced the apoptotic activity of bortezomib”, the “synergistic activity with bortezomib (apoptosis)” value (HSF-1 knockout MEFs) was “blunted” and the “synergistic activity with bortezomib (apoptosis)” value [4] was “reproduced”. For the same compound, the “bortezomib-mediated apoptosis (fold increase over DMSO-treated controls)” value (ANBL-6 cells [5]) was “significant increase in bortezomib-mediated apoptosis”.

For “CNTO 328: chimeric monoclonal IL-6 neutralizing antibody”, the “effect on cytotoxicity of bortezomib (cell viability)” value (KAS-6 cells [6]) was “potentiated the cytotoxicity of bortezomib”, the “effect on cytotoxicity of bortezomib (cell viability)” value (ANBL-6 cells [7]; ANBL-6, 10 mcg/ml antibody pre-incubated 24 hours, then bortezomib 24 hours, relative to control antibody F105) was “potentiated the cytotoxicity of bortezomib” and the “effect on cytotoxicity of bortezomib, sequencing” value (“effect … sequencing” for short) (ANBL-6 cells [7]; ANBL-6, antibody 24 hours followed by antibody and bortezomib 5 nM 24 hours (antibody→bortezomib)) was “enhanced the cytotoxicity of bortezomib most”. The “effect … sequencing” value (ANBL-6 cells [7]; ANBL-6, antibody and bortezomib 5 nM concurrently for 24 hours (antibody+bortezomib)) was “enhanced the cytotoxicity of bortezomib most”, the “effect … sequencing” value (ANBL-6 cells [7]; ANBL-6, bortezomib 5 nM 12 hours followed by antibody 24 hours (bortezomib→antibody)) was “little additional effect” and the “effect on activity of bortezomib (cell viability)” value [8] was “did not enhance the activity of bortezomib”. For the same compound, the potentiation of apoptosis [9] was “not able to potentiate apoptosis”, the “induction of apoptosis (fold increase over DMSO and F105-treated controls)” value (KAS-6 cells [10]) was “enhanced induction of apoptosis; also recorded: greater than the sum of the two individual agents alone” and the “induction of apoptosis (fold increase over DMSO and F105-treated controls)” value (ANBL-6 cells [11]) was “enhanced induction of apoptosis; also recorded: greater than the sum of the two individual agents alone”. The “cell viability (percent viability relative to untreated cells)” value (KAS-6 cells [12]) was “dose- and time-dependent reduction in cell viability”, the “cell viability (percent viability relative to untreated cells)” value (ANBL-6 cells [13]) was “dose- and time-dependent reduction in cell viability” and the “decrease of bortezomib-mediated induction of HSP-70” value [2, 15] was 45%. For the same compound, the “decrease of bortezomib-mediated induction of MKP-1” value [2, 15] was 90%, the “levels of phospho-STAT-3” value ([2]; 8 hours, immunoblot) was “reduction in levels” and the “levels of phospho-p42/44 MAPK” value ([2]; 8 hours, immunoblot) was “reduction in levels”. For the same compound, the “levels of hyperphosphorylated HSF-1” value [2, 16] was “decreased levels”, the “levels of transcriptionally active phospho-STAT-1” value [2, 16] was “decreased levels” and the “phospho-STAT-3 and phospho-p42/44 MAPK levels” value [14] was “marked decrease”.
